Data as given in patent US20260217691A1, “FOXM1 INHIBITORS AND THEIR USE IN TREATING CANCERS” (THE BOARD OF TRUSTEES OF THE UNIVERSITY OF ILLINOIS, priority 2022, published 2026).

Columns and labels:
FLO-1 cells = experiment: Chemosensitization of esophageal adenocarcinoma cells; format: cell-based; details: 24 hrs
Text: In all cases, total protein samples were obtained from cells immediately after treatment and analyzed for FOXM1, cleaved caspase-3 levels via immunoblotting, β-actin was used as internal loading control (n=3). […] In all cases, total protein samples were obtained from cells immediately after treatment and analyzed for FOXM1 and cleaved caspase-3 levels via immunoblotting, β-actin was used as internal loading control.

FOXM1 = target: T1, FOXM1 (Homo sapiens, UniProt Q08050); experiment: FOXM1 protein levels by immunoblotting in solid cancer cell lines
T1 sequence (Q08050 1-763): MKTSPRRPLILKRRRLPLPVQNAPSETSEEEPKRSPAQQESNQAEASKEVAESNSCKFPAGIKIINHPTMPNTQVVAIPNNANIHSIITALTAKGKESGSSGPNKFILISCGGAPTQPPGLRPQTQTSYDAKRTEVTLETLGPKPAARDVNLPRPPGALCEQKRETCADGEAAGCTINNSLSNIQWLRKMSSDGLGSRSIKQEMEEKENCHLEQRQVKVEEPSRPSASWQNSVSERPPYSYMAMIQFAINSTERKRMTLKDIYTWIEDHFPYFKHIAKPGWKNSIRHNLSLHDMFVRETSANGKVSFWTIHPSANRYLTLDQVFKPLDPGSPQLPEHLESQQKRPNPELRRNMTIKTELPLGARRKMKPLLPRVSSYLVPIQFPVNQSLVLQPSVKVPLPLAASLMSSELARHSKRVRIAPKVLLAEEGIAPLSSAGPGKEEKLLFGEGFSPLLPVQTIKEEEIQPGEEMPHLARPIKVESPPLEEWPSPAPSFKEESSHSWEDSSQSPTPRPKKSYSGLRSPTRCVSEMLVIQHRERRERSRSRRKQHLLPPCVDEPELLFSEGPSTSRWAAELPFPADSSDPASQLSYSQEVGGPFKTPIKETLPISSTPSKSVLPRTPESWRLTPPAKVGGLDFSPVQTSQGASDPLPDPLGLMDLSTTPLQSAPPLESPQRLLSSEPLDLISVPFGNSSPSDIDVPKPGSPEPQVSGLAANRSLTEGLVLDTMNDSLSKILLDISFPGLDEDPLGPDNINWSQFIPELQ
Experimental: Cell culture: Human cell lines LNCaP and 22Rv1 (human prostate carcinoma), OVCAR8 and ES-2 (High-grade serous ovarian cancer, HGSOC), HCT-116 and HCT-FET (human colorectal carcinoma), HCC-1143 (triple negative breast cancer (TNBC), TAMR (Tamoxifen resistant MCF7) human breast cancer, were provided from various investigators. LNCaP and 22Rv1 cell lines were cultured in RPMI-1640 with 2 mM L-Glutamine (Gibco; Thermo Fisher Scientific, Waltham, MA, USA). HCC-1143 cell lines were cultured in Iscove's Modified Dulbecco Medium (IMDM) with 2 mM L-Glutamine (Gibco; Thermo Fisher Scientific). OVCAR-8, ES-2, HCT-116, and HCT-FET cell lines were cultured in Dulbecco's Modified Eagle Medium (DMEM) with 4.5 g/L glucose and 4 mM L-Glutamine (Gibco; Thermo Fisher Scientific). For all cell lines, the growth media was supplemented with 10% Foetal Bovine Serum (FBS), penicillin (100 U/mL), and 100 μg/mL streptomycin (Gibco; Thermo Fisher Scientific). TAMR cells were routinely cultured in DMEM/F12 medium without phenol red (Gibco; Thermo Fisher Scientific), containing 1% charcoal-striped FBS, 2.5 mM L-Glutamine (Thermo Fisher Scientific), 6 ng/mL insulin (Millipore Sigma) and 50 nM 4-hydroxytamoxifen (4-OHT; Millipore Sigma). All cell lines were grown and maintained at 37° C. in a humidified incubator with 5% CO2. Sub-confluent cultures (70-80%) were split 1:5 using 0.25% Trypsin/EDTA (Millipore Sigma).
Drug treatment of cultured cells: After harvesting, cells were counted in presence of Trypan Blue (Thermo Fisher Scientific) and seeded onto tissue culture plates to achieve ~50% confluency. The next day, treatment of cells was performed by aspirating the nonadherent cells and growth medium and replacing it with the fresh one containing selected concentrations of drugs. For Tamoxifen based studies, the nonadherent cells and growth media was aspirated and replaced with the DMEM supplemented with 4.5 g/L glucose and 4 mM L-Glutamine, 10% FBS, penicillin (100 U/mL), 100 μg/mL streptomycin, 10 nM estrogen, and selected concentrations of drugs. […] Post-treatment at selected times, the cells were harvested, washed with ice-cold PBS and used for protein or RNA purification as described below.
Protein immunoblotting: Total protein was extracted using ice-cold radio-immunoprecipitation assay (RIPA) buffer (Millipore Sigma) supplemented with Halt protease- and phosphatise-inhibitor cocktails (Fisher Scientific), 2 mM sodium orthovanadate (New England Biolabs, Inc., USA), and 5 mM sodium fluoride (Millipore Sigma) according to the manufacturer's protocol. Protein content in each sample was estimated using Bio-Rad Protein Assay (Bio-Rad, USA). Equal amounts of protein (20-30 μg) were separated on hand-cast SDS/PAGE (6-12%) mini-protein gels and transferred to 0.2 μm Immobilon-Psq polyvinylidene difluoride (PVDF) transfer membrane (Millipore Sigma). Membranes were blocked with 4% bovine serum albumin (BSA; Millipore Sigma) in TRIS-buffered saline (TBS) with 0.1% Tween-20 (TBS-T, Thermo Fisher Scientific) and probed overnight at 4° C. with the primary antibodies (FOXM1, Cell Signaling Technology (CST), Inc., USA; Cleaved Caspase-3, CST; β-actin, Thermo Fisher Scientific) diluted according to the manufacturer's protocol. […] After incubating membranes with the secondary antibodies, the membranes were then washed three times for 10 min each with TBST. Protein bands were developed using SuperSignal™ West Pico PLUS Chemiluminescent Substrate (Thermo Fisher Scientific) and detected using ChemiDoc Imaging System (Bio-Rad).

## O=C(Oc1cccc(-c2ccn(-c3nc(Nc4ccccc4)nc(N4CCOCC4)n3)n2)c1)c1ccco1 [STL001]
FLO-1 cells
  sensitization to Cisplatin, 5′FU, Paclitaxel, Irinotecan: sensitizes esophageal adenocarcinoma cells (FLO-1) to conventional chemotherapeutic drugs
FOXM1; HCC-1143
  FOXM1 level in combination with cisplatin or doxorubicin: efficiently prevents cisplatin or doxorubicin chemotherapy induced FOXM1 upregulation
FOXM1; HCT-116 and HCT-FET
  FOXM1 levels in combination with 5′FU: remarkably decreased 5′FU-induced FOXM1 levels
FOXM1; OVCAR-8, ES-2, HCT-116, HCT-FET, TAM-R, HCC-1143, 22RV1, LNCaP, tested at 1, 5, 10 μM
  concentration giving reduction of cellular levels of FOXM1 protein: 1 µM
FOXM1; OVCAR-8, ES-2, 24 hrs
  FOXM1 protein levels in combination with doxorubicin: efficiently prevented FOXM1 activation
FOXM1; TAMR cells
  FOXM1 level in combination with tamoxifen: efficiently prevents tamoxifen induced FOXM1 upregulation
FOXM1; breast, colorectal, esophageal and ovarian cancer cells
  FOXM1 expression: demonstrably lowers FOXM1 expression
FOXM1; solid cancer cell lines
  efficiency in reducing cellular FOXM1 activity compared to STL427944: ~ 25 times
